The record followed here is ChEMBL document CHEMBL5344429, “1,3-Substituted β-Carboline Derivatives as Potent Chemotherapy for the Treatment of Cystic Echinococcosis” (J Med Chem, 2023).

The test system of assay [1] is Echinococcus granulosus. The assay is described as follows: Parasiticidal activity against Echinococcus granulosus protoscolices assessed as death rate at 1 uM incubated for 48 hrs by eosin exclusion test. The assay is classed as functional.
For assay [2], the system named is Echinococcus granulosus. The assay is described as follows: Parasiticidal activity against Echinococcus granulosus protoscolices […] by eosin exclusion test. The assay is classed as functional. Particulars: 1152 h, time 48 day.
The subject of assay [3] is Echinococcus granulosus. The assay can be described thus: Parasiticidal activity against Echinococcus granulosus microcyst infected in kunming mouse assessed as mean cyst weight at 25 mg/kg, ip administered for 14 days. The assay is classed as functional. Conditions: time 14 day.
For assay [4], the system named is Echinococcus granulosus. The assay is described as follows: Parasiticidal activity against Echinococcus granulosus microcyst infected in kunming mouse assessed as reduction in cyst weight at 25 mg/kg, ip administered for 28 days relative to control. More on the design: scale not given: the % may be the effect or the level left. Particulars: time 28 day. The assay is classed as functional.

The test system of assay [5] is Echinococcus granulosus. The assay is described as follows: Parasiticidal activity against Echinococcus granulosus protoscolices assessed as survival rate at 1 uM incubated for 48 hrs by eosin exclusion test. The class given is functional.
In assay [6] the test system is Echinococcus granulosus. The assay is described as follows: Parasiticidal activity against Echinococcus granulosus assessed as cyst destruction at 100 uM incubated for 4 days by scanning electron microscopy. The class given is functional, organism-based. Particulars: time 4.0 day.
Assay [7] has as its system Echinococcus granulosus. The assay is described as follows: Parasiticidal activity against Echinococcus granulosus microcyst infected in kunming mouse assessed as mean cyst weight at 25 mg/kg, ip administered for 28 days. The assay is classed as functional. Particulars: time 28 day.
Assay [8] relates to Echinococcus granulosus. The assay is described as follows: Parasiticidal activity against intraperitoneal cystic Echinococcus granulosus infected in Kunming mouse assessed as decrease number of microvilli at 50 mg/kg, ip administered for 28 days by TEM analysis. Particulars: time 28.0 day. The class given is functional, organism-based.
Assay [9] deals with Echinococcus granulosus. The assay can be described thus: Parasiticidal activity against Echinococcus granulosus microcyst infected in kunming mouse assessed as reduction in cyst weight at 25 mg/kg, ip administered for 14 days relative to control. The class given is functional. Further details: scale not given: the % may be the effect or the level left. Conditions: time 14 day.

The subject of assay [10] is Echinococcus granulosus. The assay is described as follows: Parasiticidal activity against Echinococcus granulosus protoscolices assessed as body shrank with irregular edge at 5 uM incubated for 4 days by H and E staining based assay. The class given is functional, organism-based. Conditions: time 4.0 day.
Assay [11] concerns Echinococcus granulosus. The assay can be described thus: Parasiticidal activity against Echinococcus granulosus microcyst infected in kunming mouse assessed as mean cyst weight at 50 mg/kg, ip administered for 28 days. Conditions: time 28 day. The class given is functional.
Assay [12] relates to Echinococcus granulosus. The assay can be described thus: Parasiticidal activity against Echinococcus granulosus microcyst infected in kunming mouse assessed as reduction in cyst weight at 12.5 mg/kg, ip administered for 14 days relative to control. The assay is classed as functional. More on the design: scale not given: the % may be the effect or the level left. Conditions: time 14 day.

Assay [13] deals with Echinococcus granulosus. The assay can be described thus: Parasiticidal activity against intraperitoneal cystic Echinococcus granulosus infected in Kunming mouse assessed as appearance of unclear cortex at 50 mg/kg, ip administered for 28 days by TEM analysis. The class given is functional, organism-based. Conditions: time 28.0 day.
For assay [14], the system named is Echinococcus granulosus. The assay can be described thus: Parasiticidal activity against Echinococcus granulosus microcyst infected in kunming mouse assessed as mean cyst weight at 12.5 mg/kg, ip administered for 28 days. Conditions: time 28 day. The assay is classed as functional.
The test system of assay [15] is Echinococcus granulosus. The assay can be described thus: Parasiticidal activity against Echinococcus granulosus protoscolices assessed as appearance of relative completion of sucker at 5 uM incubated for 2 days by scanning electron microscopy. The assay is classed as functional, organism-based. Conditions: time 2.0 day.
Assay [16] has as its system Echinococcus granulosus. The assay can be described thus: Parasiticidal activity against Echinococcus granulosus microcyst infected in kunming mouse assessed as mean cyst weight at 50 mg/kg, ip administered for 14 days. The class given is functional. Conditions: time 14 day.
Assay [17] has as its system Echinococcus granulosus. The assay can be described thus: Parasiticidal activity against Echinococcus granulosus protoscolices assessed as outer skin and hooks fall off at 5 uM incubated for 2 days by scanning electron microscopy. The class given is functional, organism-based. Particulars: time 2.0 day.
Assay [18] concerns Echinococcus granulosus. The assay can be described thus: Parasiticidal activity against Echinococcus granulosus microcyst infected in kunming mouse assessed as reduction in cyst weight at 50 mg/kg, ip administered for 14 days relative to control. The assay is classed as functional. More on the design: scale not given: the % may be the effect or the level left. Particulars: time 14 day.

For assay [19], the system named is Echinococcus granulosus. The assay is described as follows: Parasiticidal activity against Echinococcus granulosus microcyst infected in kunming mouse assessed as reduction in cyst weight at 12.5 mg/kg, ip administered for 28 days relative to control. The assay is classed as functional. More on the design: scale not given: the % may be the effect or the level left. Conditions: time 28 day.

Assay [20] has as its system Echinococcus granulosus. The assay is described as follows: Parasiticidal activity against Echinococcus granulosus microcyst infected in kunming mouse assessed as mean cyst weight at 12.5 mg/kg, ip administered for 14 days. The assay is classed as functional. Conditions: time 14 day.
In assay [21] the test system is Echinococcus granulosus. The assay is described as follows: Parasiticidal activity against intraperitoneal cystic Echinococcus granulosus infected in Kunming mouse assessed as reduction in cell count with clear nucleolus at 50 mg/kg, ip administered for 28 days by TEM analysis. The assay is classed as functional, organism-based. Particulars: time 28.0 day.
Assay [22] concerns Echinococcus granulosus. The assay can be described thus: Parasiticidal activity against Echinococcus granulosus microcyst infected in kunming mouse assessed as reduction in cyst weight at 50 mg/kg, ip administered for 28 days relative to control. The class given is functional. More on the design: scale not given: the % may be the effect or the level left. Conditions: time 28 day.

Assay [23] relates to Echinococcus granulosus. The assay can be described thus: Parasiticidal activity against Echinococcus granulosus protoscolices assessed as appearance of partial shedding at 5 uM incubated for 4 days by H and E staining based assay. The assay is classed as functional, organism-based. Particulars: time 4.0 day.

Calls of active or inactive are those of the source. The rule behind the calls is not given here.

In the case of `COc1ccc(-c2nc(C(=O)Nc3ccc(CN4CCC(N5CCCCC5)CC4)cc3)cc3c2[nH]c2ccccc23)c(OC)c1`, the result in assay [1] was Active. Moreover, the LC50 – broadly, the concentration that kills 50% of the test population – in [2] was determined as 13 µM.

With `CCCSc1ccc2[nH]c(NC(=O)OC)nc2c1` [ALBENDAZOLE], the Activity in [3] turned out to be 26.2 mg; in [4], 53.45%; in assay [5], 100%; in [7], 25.3 mg; in assay [9], 49.16%; in assay [11], 24.2 mg. Further, the Activity in assay [12] turned out to be 42.77%; in assay [14] it was 26.7 mg; in [16], 23.3 mg; in assay [18], 54.7%; in assay [19], 50.9%; in [20], 29.5 mg. For the same molecule, in [22], the Activity is 55.4%. Besides, in assay [6], the outcome was inactive. Moreover, the result in [8], in [10], in [13], in [15], in assay [17] and in assay [21] was Active. For the same molecule, the result in assay [23] was Active. Further, in assay [2], the 50% lethal concentration (LC50) was 154 µM.

Take `COc1cc(OC)cc(-c2nc(C(=O)Nc3ccc(CN4CCC(N5CCCCC5)CC4)cc3)cc3c2[nH]c2ccccc23)c1`: the outcome in [1] was Active. The molecule also gave an LC50 in assay [2] of 7.16 µM.

Consider `COc1ccc(-c2nc(C(=O)Nc3ccc(CN4CCC(N5CCCCC5)CC4)cc3)cc3c2[nH]c2ccccc23)cc1OC`, for which the outcome in assay [1] was Active. In assay [2], this molecule registered a median lethal concentration (LC50) of 6.49 µM.

For `COc1ccccc1-c1nc(C(=O)Nc2ccc(CN3CCC(N4CCCCC4)CC3)cc2)cc2c1[nH]c1ccccc12`, in [1], the outcome was Active. Besides, the 50% lethal concentration (LC50) in assay [2] is 13.4 µM.

In the case of `COc1ccc(-c2nc(NC(=O)c3ccc(CN4CCCN(C)CC4)cc3)cc3c2[nH]c2ccccc23)cc1OC`, the outcome in [1] was Active. The LC50 in [2] turned out to be 13.2 µM.

Turning to `COc1cc(-c2nc(NC(=O)c3ccc(CN4CCCN(C)CC4)cc3)cc3c2[nH]c2ccccc23)cc(OC)c1OC`, the outcome in [1] was Active. Moreover, the 50% lethal concentration (LC50) in assay [2] is 16 µM.
